Holding throughout (format): cell-based
Assay [1] concerns Aspergillus terreus AT49. Description: MIC, RPMI medium. Particulars: for MIC grade, A. terreus 49: MIC banded into grades; for MIC: Aspergillus terreus, AT49, MIC banded into grades, read-out: MIC grade, A. terreus 49. The procedure, abridged: (§1)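 Broth microdilution in RPMI medium with 2% glucose and 0.135 M MOPS (pH 7.0); compounds as doubling dilutions over 50-0.05 mg/L, inoculum 1−2×10^4 cfu/mL. Plates incubated 24-48 h at 35° C; OD 485 nm read, MIC being lowest concentration giving >80% growth inhibition versus drug-free control.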

Assay [2] concerns Aspergillus niger. Description: MIC, RPMI medium. Particulars: MIC banded into grades; for MIC: Aspergillus niger, read-out: MIC grade, A. niger. The gist of the method: as §1
The test system of assay [3] is Aspergillus terreus AT4. Kind of assay: MIC, RPMI medium. The following applies: for MIC grade, A. terreus: MIC banded into grades; for MIC: Aspergillus terreus, AT4, MIC banded into grades, read-out: MIC grade, A. terreus. The procedure, abridged: as §1
For assay [4], the system named is Aspergillus fumigatus AF293. Description: MIC, RPMI medium. The following applies: for MIC grade, A. fumigatus: MIC banded into grades; for MIC: Aspergillus fumigatus, AF293, MIC banded into grades, read-out: MIC grade, A. fumigatus. The procedure, abridged: as §1
Assay [5] deals with Aspergillus flavus. Kind of assay: MIC, RPMI medium. Particulars: MIC banded into grades; for MIC: Aspergillus flavus, read-out: MIC grade, A. flavus. The gist of the method: as §1
The test system of assay [6] is Aspergillus fumigatus AF210. Kind of assay: MIC, RPMI medium. The following applies: for MIC grade, A. fumigatus 210: MIC banded into grades; for MIC: Aspergillus fumigatus, AF210, MIC banded into grades, read-out: MIC grade, A. fumigatus 210. The gist of the method: as §1
Assay [7] relates to Aspergillus terreus AT49. Description: MIC, YAG medium. The following applies: 24 h at 35° C, MIC banded into grades; for MIC: Aspergillus terreus, read-out: MIC grade, A. terreus 49. The gist of the method: (§2)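 Spores harvested from 5-day Sabouraud agar cultures were inoculated at 1−2×10^4 cfu/mL into YAG medium (1% glucose, 1% ammonium chloride, 0.5% yeast extract) over doubling drug dilutions spanning 50-0.05 mg/L, or 0.5-0.0005 mg/L on repeat. After 24 h at 35° C, OD485 was read. MIC is the lowest concentration inhibiting growth >70% versus drug-free control, in mg/L.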

In assay [8] the test system is Aspergillus niger. Kind of assay: MIC, YAG medium. The following applies: 24 h at 35° C, MIC banded into grades; for MIC: Aspergillus niger, read-out: MIC grade, A. niger. The procedure, abridged: as §2
The subject of assay [9] is Aspergillus terreus AT4. Kind of assay: MIC, YAG medium. Particulars: 24 h at 35° C, MIC banded into grades; for MIC: Aspergillus terreus, read-out: MIC grade, A. terreus. The gist of the method:
as §2

In assay [10] the test system is Aspergillus fumigatus AF293. Description: MIC, YAG medium. Particulars: 24 h at 35° C, MIC banded into grades; for MIC: Aspergillus fumigatus, read-out: MIC grade, A. fumigatus. The gist of the method: as §2
For assay [11], the system named is Aspergillus flavus. Kind of assay: MIC, YAG medium. Particulars: 24 h at 35° C, MIC banded into grades; for MIC: Aspergillus flavus, 24 h, read-out: MIC grade, A. flavus. The procedure, abridged: as §2
The subject of assay [12] is Aspergillus fumigatus AF210. Description: MIC, YAG medium. Particulars: 24 h at 35° C, MIC banded into grades; for MIC: Aspergillus fumigatus, read-out: MIC grade, A. fumigatus 210. The procedure, abridged: as §2

Values after ≈ are worked out from the molar mass of the structure shown.

By MIC is commonly meant the least concentration at which growth counts as inhibited.

As for `Cc1cc(C)nc(N2CCN(c3ccc(NC(=O)C(=O)c4c(-c5ccccc5)cc(C)n4CC(=O)OC(C)C)cc3)CC2)c1` [Example 77, (2-{4-[4-(4,6-Dimethyl-pyridin-2-yl)-piperazin-1-yl]-phenylaminooxalyl}-5-methyl-3-phenyl-pyrrol-1-yl)-acetic acid isopropyl ester], the “MIC grade, A. terreus 49” value in assay [1] is on record as 1 (a grade of 1 represents an MIC of greater than 10 mg/L); in assay [7] it was 2 (A grade of 2 represents an MIC of from 1 to 10 mg/L). The “MIC grade, A. niger” value in assay [2] was 1 (a grade of 1 represents an MIC of greater than 10 mg/L); in assay [8], 2 (A grade of 2 represents an MIC of from 1 to 10 mg/L). Also, the “MIC grade, A. terreus” value in assay [3] is 1 (a grade of 1 represents an MIC of greater than 10 mg/L); in [9], 2 (A grade of 2 represents an MIC of from 1 to 10 mg/L). For the same molecule, the entries for the “MIC grade, A. fumigatus” value in assay [4] and in assay [10] were 2 (A grade of 2 represents an MIC of from 1 to 10 mg/L) and 3 (A grade of 3 represents an MIC of less than 1 mg/L), respectively. For the same molecule, the “MIC grade, A. flavus” value in assay [5] and in assay [11] was 1 (a grade of 1 represents an MIC of greater than 10 mg/L) each time. The figures for the “MIC grade, A. fumigatus 210” value in [6] and in assay [12] were 2 (A grade of 2 represents an MIC of from 1 to 10 mg/L) and 3 (A grade of 3 represents an MIC of less than 1 mg/L), respectively.

For `COCCn1c(C)cc(-c2ccccc2)c1C(=O)C(=O)Nc1ccc(N2CCCCC2)c(F)c1` [Example 119, N-(3-Fluoro-4-piperdin-1-yl-phenyl)-2-[1-(2-methoxy-ethyl)-5-methyl-3-phenyl-1H-pyrrol-2-yl]-2-oxo-acetamide], the “MIC grade, A. terreus 49” value in assay [1] is reported as 2 (A grade of 2 represents an MIC of from 1 to 10 mg/L); in assay [7] it was 3 (A grade of 3 represents an MIC of less than 1 mg/L). Moreover, the “MIC grade, A. niger” value in assay [2] and in [8] was 3 (A grade of 3 represents an MIC of less than 1 mg/L) in each case. The “MIC grade, A. terreus” value in assay [3] and in [9] was 3 (A grade of 3 represents an MIC of less than 1 mg/L) throughout. Moreover, the “MIC grade, A. fumigatus” value in [4] and in [10] was 3 (A grade of 3 represents an MIC of less than 1 mg/L) each time. Further, the “MIC grade, A. flavus” value in assay [5] and in [11] was 2 (A grade of 2 represents an MIC of from 1 to 10 mg/L) throughout. The “MIC grade, A. fumigatus 210” value in assay [6] and in [12] was 3 (A grade of 3 represents an MIC of less than 1 mg/L) throughout.

Regarding `CSCn1c(C)cc(-c2ccccc2)c1C(=O)C(=O)Nc1ccc(N2CCN(c3cc(C)cc(C)n3)CC2)cc1` [Example 137, N-{4-[4-(4,6-Dimethyl-pyridin-2-yl)-piperazin-1-yl]-phenyl}-2-(5-methyl-1-methylsulfanylmethyl-3-phenyl-1H-pyrrol-2-yl)-2-oxo-acetamide], the MIC in [1] is 1 to 10 µg/mL (≈ 1.81 to 18.1 µM); in assay [2], 1 to 10 µg/mL (≈ 1.81 to 18.1 µM); in [3], 1 to 10 µg/mL (≈ 1.81 to 18.1 µM); in assay [4], under 1 µg/mL; in assay [5] it was 1 to 10 µg/mL (≈ 1.81 to 18.1 µM); in [6], 1 to 10 µg/mL (≈ 1.81 to 18.1 µM). Moreover, the MIC in assay [7], in assay [8], in [9], in assay [10], in assay [11] and in [12] was under 1 µg/mL each time.

`Cc1cc(C)nc(N2CCN(c3ccc(NC(=O)C(=O)c4c(-c5ccccc5)cc(C)n4C)c(Cl)c3)CC2)c1` [Example 21, N-{2-Chloro-4-[4-(4,6-dimethyl-pyridin-2-yl)-piperazin-1-yl]-phenyl}-2-(1,5-dimethyl-3-phenyl-1H-pyrrol-2-yl)-2-oxo-acetamide]: the MIC in assay [1], in [2], in assay [3], in [4], in assay [5] and in assay [6] was under 1 µg/mL each time. Besides, the MIC in [7], in [8], in [9], in assay [10], in assay [11] and in [12] was under 1 µg/mL each time.

Consider `CCn1ccc2c(F)c(NC(=O)C(=O)c3c(-c4ccccc4)cc(C)n3C)ccc21` [Example 128, 2-(1,5-Dimethyl-3-phenyl-1H-pyrrol-2-yl)-N-(1-ethyl-4-fluoro-1H-indol-5-yl)-2-oxo-acetamide], for which the MIC in [1], in assay [2], in [3], in assay [4], in [5] and in assay [6] was under 1 µg/mL in each case. The MIC in assay [7], in assay [8], in assay [9], in [10], in [11] and in [12] was under 1 µg/mL in each case.

Take `COCCc1cc(C)n(-c2ccccc2)c1C(=O)C(=O)Nc1ccc(N2CCN(c3cc(C)cc(C)n3)CC2)cc1` [Example 80, N-{4-[4-(4,6-Dimethyl-pyridin-2-yl)-piperazin-1-yl]-phenyl}-2-[3-(2-methoxy-ethyl)-5-methyl-1-phenyl-1H-pyrrol-2-yl]-2-oxo-acetamide]: the MIC in [1], in assay [2], in assay [3], in [4], in [5] and in assay [6] was over 10 µg/mL each time. Also, the MIC in [7], in [8], in [9], in assay [10], in [11] and in assay [12] was over 10 µg/mL throughout.

For `Cc1cc(C)nc(N2CCN(c3ccc(NC(=O)C(=O)c4c(-c5ccccc5)ccn4C)cc3)CC2)c1` [Example 45, N-{4-[4-(4,6-Dimethyl-pyridin-2-yl)-piperazin-1-yl]-phenyl}-2-(1-methyl-3-phenyl-1H-pyrrol-2-yl)-2-oxo-acetamide], the minimum inhibitory concentration (MIC) in assay [1], in assay [2], in assay [3], in assay [4], in [5] and in assay [6] was under 1 µg/mL each time. Further, the MIC in assay [7], in [8], in assay [9], in assay [10], in assay [11] and in assay [12] was under 1 µg/mL in each case.

Regarding `Cc1cccc(N2CCN(c3ccc(NC(=O)C(=O)c4c(-c5ccccc5)cc(C)n4C)cc3)CC2)n1` [Example 39, 2-(1,5-Dimethyl-3-phenyl-1H-pyrrol-2-yl)-N-{4-[4-(6-methyl-pyridin-2-yl)-piperazin-1-yl]-phenyl}-2-oxo-acetamide], the MIC in assay [1], in [2], in assay [3], in assay [4], in assay [5] and in assay [6] was under 1 µg/mL in each case. Besides, the MIC in assay [7], in assay [8], in assay [9], in assay [10], in [11] and in [12] was under 1 µg/mL throughout.
